Test results published in ChEMBL document CHEMBL1201862, “PubChem BioAssay data set” (2004).
Active and inactive are the calls of the source. Cut-off read from the data, not from the text of the source, for most assays here: actives have a measured EC50 and inactives only a lower limit.

How the values were obtained:
[1] = target: ATP-dependent molecular chaperone HSP82 (Candida albicans (strain WO-1) (Yeast), UniProt C4YTQ8); assay: loss of DOC-induced GRE-beta-galactosidase reporter signal, dose response, Hsp90 inhibitor project, S. cerevisiae, luminescence (AID 2400); type: functional, cell-based;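 note: beta-galactosidase luminescence from glucocorticoid response element reporter as proxy for Hsp90 function; inhibitor potency where signal loss means Hsp90 inhibition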
Chain of ATP-dependent molecular chaperone HSP82 (C4YTQ8 whole entry): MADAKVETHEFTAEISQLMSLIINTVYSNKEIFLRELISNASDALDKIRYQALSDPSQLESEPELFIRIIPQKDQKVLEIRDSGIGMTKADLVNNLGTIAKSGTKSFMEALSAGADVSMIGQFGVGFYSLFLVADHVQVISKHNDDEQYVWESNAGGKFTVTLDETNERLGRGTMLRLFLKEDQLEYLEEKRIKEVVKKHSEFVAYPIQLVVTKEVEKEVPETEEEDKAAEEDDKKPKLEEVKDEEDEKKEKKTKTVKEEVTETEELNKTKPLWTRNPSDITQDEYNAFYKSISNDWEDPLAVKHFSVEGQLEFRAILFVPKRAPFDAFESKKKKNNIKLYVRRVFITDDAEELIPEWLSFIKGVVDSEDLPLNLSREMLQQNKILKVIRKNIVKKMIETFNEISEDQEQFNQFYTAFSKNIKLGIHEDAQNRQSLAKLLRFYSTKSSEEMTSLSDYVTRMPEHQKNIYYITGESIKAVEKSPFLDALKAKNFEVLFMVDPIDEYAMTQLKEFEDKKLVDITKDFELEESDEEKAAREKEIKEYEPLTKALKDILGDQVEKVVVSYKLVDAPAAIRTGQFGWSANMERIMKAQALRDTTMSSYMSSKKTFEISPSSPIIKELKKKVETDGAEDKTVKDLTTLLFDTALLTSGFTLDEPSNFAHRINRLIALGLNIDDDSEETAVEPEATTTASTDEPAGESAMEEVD

[2] = target: T1, Serine/threonine-protein phosphatase (Candida dubliniensis (strain CD36 / CBS 7987 / NCPF 3949 / NRRLY-17841) (Yeast), UniProt B9W6M3); assay: calcineurin pathway inhibitors in yeast reporter, dose response, S. cerevisiae, CDRE-lacZ, luminescence, secondary (AID 2388); type: functional, cell-based;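 note: yeast reporter cells carrying a calcineurin-responsive lacZ construct stimulated with calcium chloride; luminescent beta-galactosidase reporter signal in whole cells rather than isolated phosphatase activity; potency for inhibition where a drop in reporter signal means calcineurin blockade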
T1 sequence (B9W6M3 whole entry): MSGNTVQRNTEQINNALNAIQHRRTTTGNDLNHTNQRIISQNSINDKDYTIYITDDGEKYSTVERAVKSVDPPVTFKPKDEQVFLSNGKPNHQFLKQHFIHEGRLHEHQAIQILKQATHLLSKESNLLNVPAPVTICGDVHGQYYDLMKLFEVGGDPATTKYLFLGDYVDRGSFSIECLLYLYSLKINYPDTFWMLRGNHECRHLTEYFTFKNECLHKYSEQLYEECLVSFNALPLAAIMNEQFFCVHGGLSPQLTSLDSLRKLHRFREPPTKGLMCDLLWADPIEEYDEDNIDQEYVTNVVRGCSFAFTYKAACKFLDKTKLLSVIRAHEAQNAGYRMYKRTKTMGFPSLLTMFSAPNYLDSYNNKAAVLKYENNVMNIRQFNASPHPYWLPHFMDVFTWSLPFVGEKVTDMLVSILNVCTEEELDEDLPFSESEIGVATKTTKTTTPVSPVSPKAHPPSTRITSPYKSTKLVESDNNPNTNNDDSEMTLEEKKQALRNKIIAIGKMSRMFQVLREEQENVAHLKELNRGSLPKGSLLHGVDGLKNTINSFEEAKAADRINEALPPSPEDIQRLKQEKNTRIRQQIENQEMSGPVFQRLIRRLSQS

[3] = NIH-3T3 fibroblast cytotoxicity, dose response, cytotoxicity control, cell-based, fluorescence, Alamar Blue, secondary assay (AID 2327); type: functional;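 note: NIH-3T3 mouse fibroblasts cultured with fluconazole at 8 µg/mL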
[4] = C. albicans growth with fluconazole, confirmation, fluorescence, retest (AID 2467); type: functional, cell-based
[5] = Counterscreen for AddAB inhibitors: absorbance-based bacterial cell-based high throughput dose response assay for inhibitors of bacterial viability. [Related pubchem assays (depositor defined):AID435030, AID449728, AID449731, AID488942, AID488955, AID488956]; type: functional

| SMILES | EC50 [1] | EC50 [2] | EC50 [3] | EC50 [4] | IC50 [5] |
| --- | --- | --- | --- | --- | --- |
| CCCCC(=O)NC(c1ccco1)c1cc(Cl)c2cccnc2c1O (stereo not given) | > 160 µM (inactive) | > 180 µM (inactive) | 25 µM (active) | 0.537 µM (active) | > 119 µM (inactive) |
| CCCCC(=O)NC(c1ccc(Cl)cc1)c1ccc2cccnc2c1O (stereo not given) | 29.1 µM (active) | 24.8 µM (active) | 16.6 µM (active) | 0.413 µM (active) | > 119 µM (inactive) |
| O=C(N/N=C/c1ccccc1O)/C(O)=C\C1=NC2(CCCC2)Cc2ccccc21 | 22.1 µM (active) | > 180 µM (inactive) | 10.5 µM (active) | 0.663 µM (active) | > 119 µM (inactive) |
